Experimental data published in PMC5218480 (PLoS ONE, 2017).

System: MV-4-11 cells
Assay: Gene expression microarray analysis (Affymetrix PrimeView) and GSEA
Type: cell-based, human
Set-up: RFU PODN (11730768_x_at) / Fold change /veh PODN (11730768_x_at) / RFU LINC00158 (11744669_a_at) / Fold change /veh LINC00158 (11744669_a_at) / RFU DUSP10 (11751237_a_at) / Fold change /veh DUSP10 (11751237_a_at) / RFU ID3 (11757404_x_at) / Fold change /veh ID3 (11757404_x_at) / RFU PLEKHG5 (11737974_s_at) / Fold change /veh PLEKHG5 (11737974_s_at) / RFU LRRC4B (11730491_at) / Fold change /veh LRRC4B (11730491_at) / RFU GIMAP4 (11747438_a_at) / Fold change /veh GIMAP4 (11747438_a_at) / RFU KRT8 (11758183_x_at) / Fold change /veh KRT8 (11758183_x_at) / RFU CNN1 (11734310_a_at) / Fold change /veh CNN1 (11734310_a_at) / RFU VPS37D (11726825_at) / Fold change /veh VPS37D (11726825_at) / RFU C10orf10 (11716522_x_at) / Fold change /veh C10orf10 (11716522_x_at) / RFU KIR2DL2 /// KIR2DL4 /// KIR2DL5A /// KIR2DL5B /// KIR2DS1 /// KIR2DS2 /// KIR2DS3 /// KIR2DS4 /// KIR3DL3 /// KIR3DL3 /// KIR3DS1 (11738374_at) / Fold change /veh KIR2DL2 /// KIR2DL4 /// KIR2DL5A /// KIR2DL5B /// KIR2DS1 /// KIR2DS2 /// KIR2DS3 /// KIR2DS4 /// KIR3DL3 /// KIR3DL3 /// KIR3DS1 (11738374_at) / RFU C1QL1 (11718748_at) / Fold change /veh C1QL1 (11718748_at) / RFU TMPRSS4 (11747572_a_at) / Fold change /veh TMPRSS4 (11747572_a_at) / RFU HAMP (11756126_x_at) / Fold change /veh HAMP (11756126_x_at) / RFU RNFT2 (11725882_a_at) / Fold change /veh RNFT2 (11725882_a_at) / RFU NR4A2 (11747474_a_at) / Fold change /veh NR4A2 (11747474_a_at) / RFU ABCC12 (11746883_a_at) / Fold change /veh ABCC12 (11746883_a_at) / RFU TMEM136 (11760407_x_at) / Fold change /veh TMEM136 (11760407_x_at) / RFU CLDN22 /// WWC2 (11732394_at) / Fold change /veh CLDN22 /// WWC2 (11732394_at) / RFU HLA-DPB1 (11760878_x_at) / Fold change /veh HLA-DPB1 (11760878_x_at) / RFU SPINT1 (11716480_a_at) / Fold change /veh SPINT1 (11716480_a_at) / RFU GAP43 (11754022_s_at) / Fold change /veh GAP43 (11754022_s_at) / RFU A4GNT (11735810_at) / Fold change /veh A4GNT (11735810_at) / RFU PRB3 (11715151_x_at) / Fold change /veh PRB3 (11715151_x_at) / RFU TUBB4B (11761932_at) / Fold change /veh TUBB4B (11761932_at) / RFU CAPN14 (11732068_a_at) / Fold change /veh CAPN14 (11732068_a_at) / RFU TMCC2 (11721928_a_at) / Fold change /veh TMCC2 (11721928_a_at) / RFU IRGQ (11745062_a_at) / Fold change /veh IRGQ (11745062_a_at) / RFU FAM174B (11720279_a_at) / Fold change /veh FAM174B (11720279_a_at) / RFU TMPRSS4 (11748680_a_at) / Fold change /veh TMPRSS4 (11748680_a_at) / RFU FAM212B (11763350_a_at) / Fold change /veh FAM212B (11763350_a_at) / RFU PLEKHG5 (11743358_a_at) / Fold change /veh PLEKHG5 (11743358_a_at) / RFU ZSCAN30 (11745921_a_at) / Fold change /veh ZSCAN30 (11745921_a_at) / RFU CMKLR1 (11741424_a_at) / Fold change /veh CMKLR1 (11741424_a_at) / RFU LOC101060620 /// MAPK8IP1 (11723275_at) / Fold change /veh LOC101060620 /// MAPK8IP1 (11723275_at) / RFU SPTSSB (11747773_x_at) / Fold change /veh SPTSSB (11747773_x_at) / RFU PRSS12 (11739890_at) / Fold change /veh PRSS12 (11739890_at) / RFU BIN1 (11741810_x_at) / Fold change /veh BIN1 (11741810_x_at) / RFU WNT11 (11732464_a_at) / Fold change /veh WNT11 (11732464_a_at) / RFU C10orf10 (11716521_a_at) / Fold change /veh C10orf10 (11716521_a_at) / RFU C5orf56 (11738089_at) / Fold change /veh C5orf56 (11738089_at) / RFU CYB561 (11721691_x_at) / Fold change /veh CYB561 (11721691_x_at) / RFU ANKRD19P (11752326_a_at) / Fold change /veh ANKRD19P (11752326_a_at) / RFU OR2T12 /// OR2T33 /// OR2T8 (11738714_s_at) / Fold change /veh OR2T12 /// OR2T33 /// OR2T8 (11738714_s_at) / RFU VCAN (11748164_a_at) / Fold change /veh VCAN (11748164_a_at) / RFU JSRP1 (11732532_at) / Fold change /veh JSRP1 (11732532_at) / RFU KRTAP10-11 (11738290_x_at) / Fold change /veh KRTAP10-11 (11738290_x_at) / RFU MYO3A (11730013_a_at) / Fold change /veh MYO3A (11730013_a_at) / RFU EBF3 (11725865_a_at) / Fold change /veh EBF3 (11725865_a_at) / RFU CAMK2N1 (11719241_x_at) / Fold change /veh CAMK2N1 (11719241_x_at) / RFU C5orf56 (11738088_a_at) / Fold change /veh C5orf56 (11738088_a_at) / RFU OLFML3 (11715873_a_at) / Fold change /veh OLFML3 (11715873_a_at) / RFU LOC100653217 /// NTM (11731650_a_at) / Fold change /veh LOC100653217 /// NTM (11731650_a_at) / RFU MAPK11 (11762145_a_at) / Fold change /veh MAPK11 (11762145_a_at) / RFU FIZ1 (11724087_x_at) / Fold change /veh FIZ1 (11724087_x_at) / RFU OASL (11726364_x_at) / Fold change /veh OASL (11726364_x_at) / RFU SOX15 (11748057_x_at) / Fold change /veh SOX15 (11748057_x_at) / RFU CD79A (11719716_a_at) / Fold change /veh CD79A (11719716_a_at) / RFU HIST1H1D (11736915_at) / Fold change /veh HIST1H1D (11736915_at) / RFU CASKIN2 (11723855_a_at) / Fold change /veh CASKIN2 (11723855_a_at) / RFU LOC730098 (11760151_x_at) / Fold change /veh LOC730098 (11760151_x_at) / RFU OR4N2 (11742367_at) / Fold change /veh OR4N2 (11742367_at) / RFU PRRT2 (11749266_a_at) / Fold change /veh PRRT2 (11749266_a_at) / RFU SNX32 (11753110_a_at) / Fold change /veh SNX32 (11753110_a_at) / RFU CDHR5 (11726645_a_at) / Fold change /veh CDHR5 (11726645_a_at) / RFU RCAN1 (11760418_a_at) / Fold change /veh RCAN1 (11760418_a_at) / RFU FAM167A (11723789_a_at) / Fold change /veh FAM167A (11723789_a_at) / RFU FAM26E (11764081_at) / Fold change /veh FAM26E (11764081_at) / RFU ISYNA1 (11749810_s_at) / Fold change /veh ISYNA1 (11749810_s_at) / RFU ACY1 (11761880_at) / Fold change /veh ACY1 (11761880_at) / RFU 11764098_at / Fold change /veh 11764098_at / RFU SAMD14 (11745864_x_at) / Fold change /veh SAMD14 (11745864_x_at) / RFU NPB (11741838_a_at) / Fold change /veh NPB (11741838_a_at) / RFU TMPRSS6 (11731388_a_at) / Fold change /veh TMPRSS6 (11731388_a_at) / RFU KRTAP10-2 (11738614_at) / Fold change /veh KRTAP10-2 (11738614_at) / RFU ARHGAP8 /// PRR5-ARHGAP8 (11727945_x_at) / Fold change /veh ARHGAP8 /// PRR5-ARHGAP8 (11727945_x_at) / RFU KRTAP5-7 /// NADSYN1 (11734609_at) / Fold change /veh KRTAP5-7 /// NADSYN1 (11734609_at) / RFU RASL12 (11751679_a_at) / Fold change /veh RASL12 (11751679_a_at) / RFU CDKN2B (11736163_a_at) / Fold change /veh CDKN2B (11736163_a_at) / RFU PRF1 (11729649_at) / Fold change /veh PRF1 (11729649_at) / RFU, ZNF638 /// ZNF638-IT1 / Fold change vs veh, ZNF638 /// ZNF638-IT1 / RFU, PANK3 / Fold change vs veh, PANK3 / RFU, SH3YL1 / Fold change vs veh, SH3YL1 / RFU, ZEB2 / Fold change vs veh, ZEB2 / RFU, NRIP1 / Fold change vs veh, NRIP1 / RFU, PTTG1IP / Fold change vs veh, PTTG1IP / RFU, CAPN2 / Fold change vs veh, CAPN2 / RFU, MED14 / Fold change vs veh, MED14 / RFU, SNORA58 / Fold change vs veh, SNORA58 / RFU, C1orf63 / Fold change vs veh, C1orf63 / RFU, LRRFIP1 / Fold change vs veh, LRRFIP1 / RFU, NDUFAF7 / Fold change vs veh, NDUFAF7 / RFU, SLC12A2 / Fold change vs veh, SLC12A2 / RFU, IBTK / Fold change vs veh, IBTK / RFU, ESF1 / Fold change vs veh, ESF1 / Fold change vs veh, TMEM50B / RFU, TAOK1 / Fold change vs veh, TAOK1 / RFU, ACBD3 / Fold change vs veh, ACBD3 / RFU, TMA16 / Fold change vs veh, TMA16 / RFU, RWDD3 / Fold change vs veh, RWDD3 / RFU, BCAT1 / Fold change vs veh, BCAT1 / RFU, EDEM3 / Fold change vs veh, EDEM3 / RFU, TMEM33 / Fold change vs veh, TMEM33 / RFU, WDR75 / Fold change vs veh, WDR75 / RFU, AHCTF1 / Fold change vs veh, AHCTF1 / RFU, TFRC / Fold change vs veh, TFRC / RFU, ZDHHC17 / Fold change vs veh, ZDHHC17 / RFU, NOM1 / Fold change vs veh, NOM1 / RFU, ARL8B / Fold change vs veh, ARL8B / RFU, ZBTB11 / Fold change vs veh, ZBTB11 / RFU, TAMM41 / Fold change vs veh, TAMM41 / RFU, KIAA1704 /// LOC100996395 / Fold change vs veh, KIAA1704 /// LOC100996395 / RFU, ING1 / Fold change vs veh, ING1 / RFU, TRMT61B / Fold change vs veh, TRMT61B / RFU, FUBP3 / Fold change vs veh, FUBP3 / RFU, TP53 / Fold change vs veh, TP53 / RFU, TNKS2 / Fold change vs veh, TNKS2 / RFU, ZFP14 / Fold change vs veh, ZFP14 / RFU, ACTR2 / Fold change vs veh, ACTR2 / RFU, PPP3R1 / Fold change vs veh, PPP3R1 / RFU, PIK3R1 / Fold change vs veh, PIK3R1 / RFU, HNRNPA1 / Fold change vs veh, HNRNPA1 / RFU, RNF170 / Fold change vs veh, RNF170 / RFU, ZNF28 / Fold change vs veh, ZNF28 / RFU, RNGTT / Fold change vs veh, RNGTT / RFU, OGT / Fold change vs veh, OGT / RFU, BRD1 / Fold change vs veh, BRD1 / RFU, MARS / Fold change vs veh, MARS / RFU, ZNF655 / Fold change vs veh, ZNF655 / RFU, FAHD1 / Fold change vs veh, FAHD1 / RFU, BDP1 / Fold change vs veh, BDP1 / RFU, LRRCC1 / Fold change vs veh, LRRCC1 / RFU, ARID1A / Fold change vs veh, ARID1A / RFU, ZNF146 / Fold change vs veh, ZNF146 / RFU, ZNF330 / Fold change vs veh, ZNF330 / RFU, GPN3 / Fold change vs veh, GPN3 / RFU, C9orf123 / Fold change vs veh, C9orf123 / RFU, N4BP2L2 / Fold change vs veh, N4BP2L2 / RFU, ARFIP1 / Fold change vs veh, ARFIP1 / RFU, FAM179B / Fold change vs veh, FAM179B / RFU, BCL10 / Fold change vs veh, BCL10 / RFU, UHRF1BP1L / Fold change vs veh, UHRF1BP1L / RFU, BET1 / Fold change vs veh, BET1 / RFU, CNOT2 / Fold change vs veh, CNOT2 / RFU, ZNF268 / Fold change vs veh, ZNF268 / Fold change vs veh, ZNF507 / RFU, DGCR2 / Fold change vs veh, DGCR2 / RFU, WDSUB1 / Fold change vs veh, WDSUB1 / Fold change vs veh, HSP90B1 /// MIR3652 / RFU, ADSS / Fold change vs veh, ADSS / RFU, GK / Fold change vs veh, GK / RFU, ZNF148 / Fold change vs veh, ZNF148 / RFU, TAF9 / Fold change vs veh, TAF9 / RFU, SLC1A5 / Fold change vs veh, SLC1A5 / RFU, SLMO2 / Fold change vs veh, SLMO2 / RFU, ABCC4 / Fold change vs veh, ABCC4 / RFU, LOC101060439 /// RAP1B / Fold change vs veh, LOC101060439 /// RAP1B / RFU, RFX7 / Fold change vs veh, RFX7 / RFU, GTPBP10 / Fold change vs veh, GTPBP10 / RFU, CNEP1R1 / Fold change vs veh, CNEP1R1 / RFU, BIVM-ERCC5 /// ERCC5 / Fold change vs veh, BIVM-ERCC5 /// ERCC5 / RFU, ILF3 / Fold change vs veh, ILF3 / RFU 11762660_at / Fold change /veh 11762660_at / RFU VCAN (11757783_s_at) / Fold change /veh VCAN (11757783_s_at) / RFU DDX43 (11728927_at) / Fold change /veh DDX43 (11728927_at) / RFU KRT8 (11758188_x_at) / Fold change /veh KRT8 (11758188_x_at) / RFU NKD1 (11759106_at) / Fold change /veh NKD1 (11759106_at) / RFU SRD5A1 (11742802_a_at) / Fold change /veh SRD5A1 (11742802_a_at) / RFU TPSAB1 /// TPSB2 (11721975_s_at) / Fold change /veh TPSAB1 /// TPSB2 (11721975_s_at) / RFU GSTM3 (11746129_a_at) / Fold change /veh GSTM3 (11746129_a_at) / RFU IL23R (11737362_x_at) / Fold change /veh IL23R (11737362_x_at) / RFU TMEM51 (11727254_a_at) / Fold change /veh TMEM51 (11727254_a_at) / RFU PIWIL2 (11732686_x_at) / Fold change /veh PIWIL2 (11732686_x_at) / RFU ORM1 (11744905_x_at) / Fold change /veh ORM1 (11744905_x_at) / RFU CCDC152 (11743942_at) / Fold change /veh CCDC152 (11743942_at) / RFU ECM1 (11717891_a_at) / Fold change /veh ECM1 (11717891_a_at) / RFU IL23R (11748794_a_at) / Fold change /veh IL23R (11748794_a_at) / RFU TNFAIP8L3 (11732012_x_at) / Fold change /veh TNFAIP8L3 (11732012_x_at) / RFU MBOAT4 (11741988_at) / Fold change /veh MBOAT4 (11741988_at) / RFU 11764193_at / Fold change /veh 11764193_at / RFU TMEM53 (11763286_at) / Fold change /veh TMEM53 (11763286_at) / RFU MAGEB2 (11727129_at) / Fold change /veh MAGEB2 (11727129_at) / RFU TMEM200A (11744735_a_at) / Fold change /veh TMEM200A (11744735_a_at) / RFU CCDC152 (11751479_a_at) / Fold change /veh CCDC152 (11751479_a_at) / RFU FAM211A (11726209_a_at) / Fold change /veh FAM211A (11726209_a_at) / RFU RGS16 (11746705_a_at) / Fold change /veh RGS16 (11746705_a_at) / RFU VCAN (11755009_s_at) / Fold change /veh VCAN (11755009_s_at) / RFU RHOB (11743442_s_at) / Fold change /veh RHOB (11743442_s_at) / RFU RGS16 (11720943_a_at) / Fold change /veh RGS16 (11720943_a_at) / RFU RGS16 (11720944_at) / Fold change /veh RGS16 (11720944_at) / RFU, VPS4B / Fold change vs veh, VPS4B / RFU, CREB1 / Fold change vs veh, CREB1 / RFU, DNAJC13 / Fold change vs veh, DNAJC13 / RFU, GNAQ / Fold change vs veh, GNAQ / RFU, CDK5R1 / Fold change vs veh, CDK5R1 / RFU, ZRANB3 / Fold change vs veh, ZRANB3 / RFU, CUL4A / Fold change vs veh, CUL4A / RFU, CCNY / Fold change vs veh, CCNY / RFU, UFL1 / Fold change vs veh, UFL1 / RFU, COG3 / Fold change vs veh, COG3 / RFU, DIAPH2 / Fold change vs veh, DIAPH2 / RFU, SKA2 / Fold change vs veh, SKA2 / RFU, AFF3 / Fold change vs veh, AFF3 / RFU, LMF1 / Fold change vs veh, LMF1 / RFU, IPO11 / Fold change vs veh, IPO11 / RFU, DFFB / Fold change vs veh, DFFB / RFU, FOXP1 / Fold change vs veh, FOXP1 / RFU, CARD8 / Fold change vs veh, CARD8 / RFU, STRN3 / Fold change vs veh, STRN3 / RFU, ADK / Fold change vs veh, ADK / RFU, RASSF2 / Fold change vs veh, RASSF2 / RFU, WIPF1 / Fold change vs veh, WIPF1 / RFU, LARP1B / Fold change vs veh, LARP1B / RFU, RASA1 / Fold change vs veh, RASA1 / RFU, RB1 / Fold change vs veh, RB1 / RFU, PPFIA1 / Fold change vs veh, PPFIA1 / RFU, MAT2A / Fold change vs veh, MAT2A / RFU, CCT5 / Fold change vs veh, CCT5 / RFU, WDR92 / Fold change vs veh, WDR92 / RFU, CUX1 / Fold change vs veh, CUX1 / RFU, TTC7A / Fold change vs veh, TTC7A / RFU, TMEM135 / Fold change vs veh, TMEM135 / RFU, DEPTOR / Fold change vs veh, DEPTOR / RFU, CPM / Fold change vs veh, CPM / RFU, DNAJB6 / Fold change vs veh, DNAJB6 / RFU, CACNA2D3 / Fold change vs veh, CACNA2D3 / RFU, DTX4 / Fold change vs veh, DTX4 / RFU, TFCP2 / Fold change vs veh, TFCP2 / RFU, GMCL1 /// GMCL1P1 / Fold change vs veh, GMCL1 /// GMCL1P1 / RFU, AEBP2 / Fold change vs veh, AEBP2 / RFU, SNHG1 /// SNORD22 /// SNORD25 /// SNORD26 /// SNORD27 /// SNORD28 /// SNORD29 /// SNORD31 / Fold change vs veh, SNHG1 /// SNORD22 /// SNORD25 /// SNORD26 /// SNORD27 /// SNORD28 /// SNORD29 /// SNORD31 / Fold change (Aza/veh), C12orf56 (ProbeSet 11735607_a_at) / Fold change (ACY-1035/veh), C12orf56 (ProbeSet 11735607_a_at) / Fold change (Aza/veh), FGFR1OP (ProbeSet 11751329_s_at) / Fold change (ACY-1035/veh), FGFR1OP (ProbeSet 11751329_s_at) / Fold change (Aza/veh), VPS36 (ProbeSet 11739960_a_at) / Fold change (ACY-1035/veh), VPS36 (ProbeSet 11739960_a_at) / RFU SYPL1 (11715823_x_at) / Fold change /veh SYPL1 (11715823_x_at) / RFU IGFBP7 (11715501_s_at) / Fold change /veh IGFBP7 (11715501_s_at) / RFU REEP3 (11722064_at) / Fold change /veh REEP3 (11722064_at) / RFU IGLL1 (11728026_x_at) / Fold change /veh IGLL1 (11728026_x_at): dose or concentration left out as unconfirmed
Conditions: MV-4-11 cells, 48 hours

For `Nc1ncn([C@@H]2O[C@H](CO)[C@@H](O)[C@H]2O)c(=O)n1` [azacitidine], the “Fold change /veh 11762660_at” value was 1.27.
